In patent US20080214669A1, “Composition and Method For Treating Hyperpigmented Skin” (LIPO CHEMICALS INC., priority 2005, published 2008):

Assays:
[1] = clinical study of skin brightening efficacy and skin redness (chromameter readings); format: in vivo, human; details: emulsion 0.3% by weight
Procedure: The skin brightening efficacy of p-HCA in ethoxydyglycol versus kojic acid also was tested in a clinical study. In this study, an emulsion containing 0.3%, by weight, p-HCA or kojic acid was used on twenty, mostly female, subjects between the ages of 30 to 50 years. The test composition was applied to the abdomen twice daily (a.m. and p.m.). The test was conducted for eight weeks, and chromameter readings were taken at baseline, and after 2, 4, 6, and 8 weeks.

[2] = skin penetration, Franz diffusion cells; format: in vitro ADME, human
Procedure: In another experiment, a 10% solution of p-HCA in ethoxydiglycol first was prepared. This solution was added to a skin care emulsion in a sufficient amount to provide either 0.3% or 0.1%, by weight, of p-HCA in the final composition. As a comparative example, 0.3%, by weight, of solid p-HCA was added to the same skin care emulsion. The skin care emulsion to which solid p-HCA or the p-HCA solution was added had the following formula (w/w %): • 85.35 water • 0.2 methylparaben • 0.35 xanthan gum • 5.0 butylene glycol • 4.0 sesame oil • 2.5 glyceryl stearate
The skin care emulsions containing p-HCA were applied to cadaver skin. Skin penetration of p-HCA was studied using Franz diffusion cells, n=5 (Permegear, Bethlehem, Pa.). The receptor contained an isotonic phosphate buffer with 30% ethanol, and was stirred continuously at 600 rpm. Samples of dermatomed human cadaver skin (NDRA, Philadelphia) were placed on the cells and prehydrated for 1 hour prior to the experiment. One milliliter of each formulation was added to the donor compartment of each cell, which was covered tightly with PARAFILM®. Samples (300 μl) were withdrawn from the receptor compartment every hour over 8 hours, and replaced with 300 μl of fresh receptor solution. After 8 hours, the skin was removed and cut into small pieces. The skin pieces were homogenized using a Kinematica POLYTRON® homogenizer and centrifuged. The supernatant was filtered through 0.22μ filters, and the p-HCA content was quantified.
All samples were analyzed by HPLC on a Hypersil ODS C18 column using water, methanol, glacial acetic acid (55:45:1) as the mobile phase at a flow rate of 1 ml/min and detection at 270 nm. Lag time and flux were obtained from permeation profiles and skin drug content also was recorded.
The following formula was tested for skin penetration: • Water 28.1% (by wt); • Carbopol 981 (2%) 17.0%; • Ethanol SDA 40b-190 53.0%; • Glycerin 1.0%; • Triethanolamine 0.4%; • p-Hydroxycinnamic acid 0.5%.
The method used to determine skin permeability was the Franz diffusion method disclosed above. […] In particular, 3.9 mcg/ml of p-HCA was found in the receptor compartment of the skin (i.e., permeated through the skin) as opposed to 16.3 mcg/ml p-HCA found within the skin.

skin enzymes = assay: metabolism of p-HCA in homogenized human skin; format: in vitro ADME; details: human skin homogenate in PBS-ethanol, 37° C., eight hours of incubation
Procedure: First, to confirm in vivo activity of p-HCA, the metabolism of p-HCA in the skin was determined. In this test, human skin was homogenized in a PBS (phosphate-buffered saline)-ethanol solution, followed by dissolution of p-HCA. The solution was incubated at 37° C. for 8 hours. Samples were taken after 0, 4, and 8 hours, and were centrifuged. The supernatant was filtered and analyzed by HPLC. […] The amount of p-HCA that is metabolized was considered insignificant with respect to an efficacious treatment of hyperpigmentation.

[3] = solubility of p-HCA in solvents / hydroxy-containing compounds (HPLC); format: physicochemical
Procedure: Various solvents were tested for an ability to dissolve p-HCA and provide a suitable composition for topical application to efficaciously treat hyperpigmentation. p-HCA was added to various solvents, then sonicated for two hours at 35° C. until no further HCA was dissolved. The samples were cooled to room temperature (25° C.) and allowed to stabilize for 15 hours. The undissolved p-HCA was allowed to settle, the supernatant liquid was filtered, and diluted with the HPLC mobile phase for assay. All samples were analyzed by HPLC on a Hypersil ODS C18 column using water, methanol, glacial acetic acid (55:45:1) as the mobile phase. The flow rate was 1 ml/min and the wavelength for detection was 270 nm. […] p-Hydroxycinnamic acid was added to the hydroxy-containing compound and sonicated until no further p-HCA dissolved after two hours of sonication at 35° C. The test sample was cooled to room temperature, then stabilized for 15 hours. After the p-HCA was allowed to settle, the supernatant was filtered through a 0.2 micron syringe filter. Approximately 0.08 g of this filtered material was weighed into a 25 ml volumetric flask and diluted to volume with HPLC mobile phase. Two standards were analyzed by HPLC and compared to the two samples. The HPLC assay was identical to the HPLC assay discussed above.

[4] = hydroethanolic Carbopol gel formula with 0.5% p-hydroxycinnamic acid
[5] = in presence of ethoxydiglycol vs powder form

Row | skin redness ([1]; weeks 4 and 8) | amount deposited in the skin relative to amount transmitted through the skin [2, 4] | p-HCA found in the receptor compartment (permeated through the skin) [2, 4] | elevation of percent p-HCA that permeates cadaver skin [2, 5] | elevation of percentage of p-HCA that remained within the skin [2, 5] | p-HCA metabolized (skin enzymes) | solubility ([3]; 30% hydroethanolic solution) | solubility ([3]; Ethanol) | solubility ([3]; PEG-8) | solubility ([3]; butylene glycol) | solubility ([3]; glycereth-26) | solubility ([3]; pentylene glycol) | solubility ([3]; silicone fluid DC 193) | SMILES | skin redness ([1]; throughout the eight-week clinical trial)
1 | induced redness |  |  |  |  |  |  |  |  |  |  |  |  | O=c1cc(CO)occ1O [kojic acid] | did not reduce redness
2 |  | four times greater | 3.9 µg/mL | 43% | about 50% | 3.6% | 0.75 wt % | 14.8 wt % | 5.4 wt % | 2.25 wt % | 7 wt % | 1.75 wt % | 4.7 wt % | O=C(O)C=Cc1ccc(O)cc1 [p-HCA, p-hydroxycinnamic acid] | 
